Paper PMC7734625, “Stabilization Strategies for Linear Minigastrin Analogues: Further Improvements via the Inclusion of Proline into the Peptide Sequence” (Journal of Medicinal Chemistry, 2020)
Non-standard residues stand in square brackets, D forms with d. Residues, ends and D or L forms follow the SMILES beside them. *: point of attachment. DOTA = O=C(O)CN1CCN(CC(=O)O)CCN(CC(=O)*)CCN(CC(=O)O)CC1; 1Nal = N[C@@H](Cc1cccc2ccccc12)C(=O)O; NMeNle = CCCC[C@H](NC)C(=O)O

What was measured:
[1] = in vivo stability studies in BALB/c mice; settings: 10 min p.i., i.v.
Description: Metabolic studies evaluating the stability of the radioligands were carried out in 7- to 8-week-old female BALB/c mice. With the ^111In-labeled peptide derivatives, the studies were performed for the time point of 10 min p.i. (n = 2). With the ^177Lu-labeled peptide derivatives, additional studies were also carried out for the time point of 30 min and 60 min p.i. (n = 1 for each time point). To allow monitoring of the metabolites by analytical HPLC, the mice were injected with a higher amount of radioactivity (6–9 MBq indium-111, 30–45 MBq lutetium-177) corresponding to ∼1 nmol total peptide intravenously through a lateral tail vein. At different time points, the mice were euthanized by cervical dislocation and urine and a blood sample was collected. Liver and kidneys were excised and homogenized in 20 mM HEPES buffer pH 7.3. The amount of intact radiopeptide and the formation of metabolites was analyzed by analytical HPLC. Prior to injection into the HPLC system, all samples were treated as described for human serum and rat organ homogenate samples.

[2] = stability in rat kidney homogenate; format: in vitro ADME; settings: 120 min incubation, 37 °C
Description: (§1) In vitro stability studies characterizing the complex stability as well as the metabolic stability of the radiolabeled peptide analogues were carried out in PBS, fresh human serum, and rat liver and rat kidney homogenates. Organ homogenates were prepared from freshly dissected organs homogenized (IKA-Werke, Staufen, Germany) for 1 min at room temperature (RT) in a 20 mM 4-(2-hydroxyethyl)-1-piperazineethanesulfonic acid (HEPES) buffer at pH 7.3 (30% w/v). A fraction of 0.1 mL of radiolabeled peptide diluted in PBS/HEPES was added to 0.9 mL of medium reaching a final concentration of ∼500 pmol/mL and incubated at 37 °C for up to 120 min in rat organ homogenates (n = 2) and up to 24 h in human serum or PBS (n = 1). At each time point, 100 μL of sample was taken treated with 150 μL of ACN to precipitate proteins centrifuged (2000g, 2 min), diluted with water (1:1), and a fraction of 100 μL was injected to the analytical HPLC system. For serum and tissue homogenates, only the soluble phase extracted after centrifugation was analyzed, whereas the radioactivity lost in the pellet was not considered.

[3] = biological target: T1, human CCK2R (Homo sapiens, UniProt P32239); experiment: competitive binding against [125I][3-iodo-Tyr12,Leu15]gastrin-I on A431-CCK2R cells; settings: unlabeled peptide, three independent assays, read-out: apparent IC50
T1 construct: expressed in transfected cells; host or cells: A431 human epidermoid carcinoma cells, stably transfected (pCR3.1), provided by Dr. Luigi Aloj
T1 sequence (P32239 1-447): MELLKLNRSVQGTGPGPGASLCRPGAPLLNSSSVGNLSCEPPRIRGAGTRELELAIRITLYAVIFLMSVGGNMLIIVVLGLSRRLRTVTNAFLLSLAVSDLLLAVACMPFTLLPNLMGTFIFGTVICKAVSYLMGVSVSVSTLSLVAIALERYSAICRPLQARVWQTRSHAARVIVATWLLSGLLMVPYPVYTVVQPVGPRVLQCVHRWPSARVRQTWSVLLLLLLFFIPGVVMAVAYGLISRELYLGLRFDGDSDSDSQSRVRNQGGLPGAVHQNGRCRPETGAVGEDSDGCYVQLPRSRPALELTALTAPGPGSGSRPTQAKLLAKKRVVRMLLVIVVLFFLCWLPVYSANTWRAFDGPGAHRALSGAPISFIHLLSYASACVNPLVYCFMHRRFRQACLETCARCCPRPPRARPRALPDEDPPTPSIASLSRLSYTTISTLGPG
Description: Binding assays were carried in 96-well filter plates (MultiScreenHTS-FB, Merck Group, Darmstadt, Germany) pretreated with 10 mM TRIS/139 mM NaCl buffer, pH 7.4 (TRIS-buffer) (2 × 250 μL) before 400 000 A431-CCK2R cells per well were added in 35 mM HEPES buffer, pH 7.4, containing 10 mM MgCl2, 14 μM bacitracin, and 0.5% bovine serum albumin (BSA).[46] Competition assays were performed three times in triplicate using increasing concentrations of competitor (0.003–1000 nM) and a constant amount of radioligand (∼40 000 cpm). After 1 h of incubation at room temperature (RT), the medium was removed and the filters were rapidly rinsed with ice-cold TRIS-buffer (2 × 200 μL), removed and counted in a γ-counter. Half-maximal inhibitory concentration (IC50) values were calculated following nonlinear regression with Origin software (MicroCal Origin 6.1, Northampton, MA). Even though incubation was performed in a hypoosmotic solution disturbing the integrity of the cell membrane, we cannot totally exclude that a limited extent of internalization affecting the binding equilibrium occurred. Therefore, the binding affinity measurements obtained from these studies are presented as “apparent IC50” rather than IC50.

[4] = log D, octanol/PBS distribution; format: physicochemical; settings: 111In-labeled peptide
[5] = biological target: T1, human CCK2R; experiment: calcium mobilization assay on A431-CCK2R cells; format: cell-based; settings: mean ± SEM
Description: (§2) For calcium mobilization assays evaluating receptor activation, A431-CCK2R cells stably transfected with human CCK2R and AR42J cells expressing rat CCK2R were seeded in flat clear bottom black 96-well plates (Corning, Bagneaux-sur-Loing, France), previously coated with poly-D-ornithine (100 μg/mL, 1 h, 37 °C), at densities of 60 000 and 120 000 cells/well, respectively. After 24 h in culture in a 5% CO2 atmosphere, the cells were rinsed twice with modified HBSS buffer (20 mM HEPES, 0.5 mM MgCl2, 2.6 mM CaCl2, 7.7 mM Na2CO3, 1.4 mM MgSO4, 5.3 mM KCl, 138 mM NaCl, 0.1% BSA, 5.5 mM glucose, 2.5 mM probenecid, pH 7.4) (Sigma-Aldrich, Saint-Quentin-Fallavier, France) and loaded (40 min at 37 °C) with the calcium-sensitive dye Fluo-4 AM (ThermoFisher Scientific, Montigny-Le-Bretonneux, France) containing pluronic acid (20% in dimethyl sulfoxide (DMSO)). […] Briefly, after 18 s recording in basal conditions, 50 μL of graded concentrations of the investigated peptides was added to the incubation medium with a built-in eight-channel pipettor to assess activity. […] EC50 values were calculated with the Prism 4.0 software using a logistic equation. Results were expressed as mean ± standard error of the mean (SEM) for at least three independent experiments in triplicate.

[6] = biological target: T2, rat CCK2R (Rattus norvegicus, UniProt P30553); experiment: calcium mobilization assay on AR42J cells; format: cell-based; settings: mean ± SEM
T2 construct: physiologically expressing the rat CCK2R; host or cells: AR42J rat pancreatic tumor cells
T2 sequence (P30553 1-452): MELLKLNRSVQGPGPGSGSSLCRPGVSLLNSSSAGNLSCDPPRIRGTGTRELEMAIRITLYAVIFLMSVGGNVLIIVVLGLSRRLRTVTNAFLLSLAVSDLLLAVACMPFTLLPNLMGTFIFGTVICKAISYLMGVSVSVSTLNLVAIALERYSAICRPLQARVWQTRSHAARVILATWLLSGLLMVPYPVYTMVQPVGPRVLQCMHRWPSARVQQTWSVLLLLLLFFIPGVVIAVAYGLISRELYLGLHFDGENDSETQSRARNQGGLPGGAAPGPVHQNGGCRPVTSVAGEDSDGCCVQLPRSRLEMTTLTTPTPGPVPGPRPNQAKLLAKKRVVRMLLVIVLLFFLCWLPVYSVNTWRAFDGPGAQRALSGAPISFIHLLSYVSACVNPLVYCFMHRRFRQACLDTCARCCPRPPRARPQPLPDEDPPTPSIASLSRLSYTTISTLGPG
Description: as §2

[7] = format: in vitro ADME; settings: 120 min, pH 7.3
Description: as §1

Row | Structure (SMILES) | intact radiopeptide in blood [1] [%] | intact radiopeptide in kidneys [1] [%] | intact radiopeptide in liver [1] [%] | intact radiopeptide in urine [1] [%] | intact radiopeptide in rat kidney homogenate [2] [%] | IC50 [3] [nM] | logD [4] | EC50 [5] [nM] | EC50 [6] [nM] | intact radiopeptide in rat liver homogenate [7]
1 | CCCC[C@@H](C(=O)N[C@@H](CC(=O)O)C(=O)N[C@@H](Cc1cccc2ccccc12)C(N)=O)N(C)C(=O)[C@H](Cc1c[nH]c2ccccc12)NC(=O)CNC(=O)[C@H](Cc1ccc(O)cc1)NC(=O)[C@@H]1CCCN1C(=O)[C@@H](CCC(=O)O)NC(=O)CN1CCN(CC(=O)O)CCN(CC(=O)O)CCN(CC(=O)O)CC1 [[^111In]In-1] [metal not drawn] ({DOTA}-[dE]PYGW[NMeNle]D[1Nal]-NH2) | 80.0 ± 5.2 | 23.4 ± 4.2 | 76.0 ± 0.4 | 21.8 ± 8.1 | ~5 | – | – | – | – | –
2 | CCCC[C@@H](C(=O)N[C@@H](CC(=O)O)C(=O)N[C@@H](Cc1cccc2ccccc12)C(N)=O)N(C)C(=O)[C@H](Cc1c[nH]c2ccccc12)NC(=O)CNC(=O)[C@H](Cc1ccc(O)cc1)NC(=O)[C@@H]1CCCN1C(=O)[C@@H](CCC(=O)O)NC(=O)CN1CCN(CC(=O)O)CCN(CC(=O)O)CCN(CC(=O)O)CC1 [compound 1] ({DOTA}-[dE]PYGW[NMeNle]D[1Nal]-NH2) | – | – | – | – | – | 1.4 ± 0.6 | -2.03 ± 0.1 | 12.3 ± 2.4 | 1.74 ± 0.81 | 39-53%
3 | CCCC[C@@H](C(=O)N[C@@H](CC(=O)O)C(=O)N[C@@H](Cc1cccc2ccccc12)C(N)=O)N(C)C(=O)[C@H](Cc1c[nH]c2ccccc12)NC(=O)CNC(=O)[C@@H]1CCCN1C(=O)[C@H](Cc1ccc(O)cc1)NC(=O)[C@@H](CCC(=O)O)NC(=O)CN1CCN(CC(=O)O)CCN(CC(=O)O)CCN(CC(=O)O)CC1 [compound 2] ({DOTA}-[dE]YPGW[NMeNle]D[1Nal]-NH2) | – | – | – | – | – | 0.6 ± 0.3 | -1.75 ± 0.1 | 14.2 ± 2.07 | 1.91 ± 0.49 | 50-61%
4 | CCCC[C@@H](C(=O)N[C@@H](CC(=O)O)C(=O)N[C@@H](Cc1cccc2ccccc12)C(N)=O)N(C)C(=O)[C@H](Cc1c[nH]c2ccccc12)NC(=O)[C@@H]1CCCN1C(=O)[C@H](Cc1ccc(O)cc1)NC(=O)[C@H](C)NC(=O)[C@@H](CCC(=O)O)NC(=O)CN1CCN(CC(=O)O)CCN(CC(=O)O)CCN(CC(=O)O)CC1 [compound 3] ({DOTA}-[dE]AYPW[NMeNle]D[1Nal]-NH2) | – | – | – | – | – | 1.3 ± 0.8 | -2.05 ± 0.08 | 12.4 ± 3.83 | 1.27 ± 0.72 | –
